Among the data in PMC7108740, “Exploring the molecular structures that confer ligand selectivity for galanin type II and III receptors” (PLoS ONE, 2020) are EC50 values, retold here.

Structures are written as SMILES.

The target of experiment [1] is T1, GALR3 septuple (Homo sapiens, UniProt O60755, A190V/A191F/C272L/G192S/L100F/Y103F/Y107H).
T1 construct: expressed in transfected cells; host or cells: HEK293 cells stably expressing pGlosensor-22F cAMP plasmid
T1 sequence (O60755 1-368 L100F/Y103F/Y107H/A190V/A191F/G192S/C272L): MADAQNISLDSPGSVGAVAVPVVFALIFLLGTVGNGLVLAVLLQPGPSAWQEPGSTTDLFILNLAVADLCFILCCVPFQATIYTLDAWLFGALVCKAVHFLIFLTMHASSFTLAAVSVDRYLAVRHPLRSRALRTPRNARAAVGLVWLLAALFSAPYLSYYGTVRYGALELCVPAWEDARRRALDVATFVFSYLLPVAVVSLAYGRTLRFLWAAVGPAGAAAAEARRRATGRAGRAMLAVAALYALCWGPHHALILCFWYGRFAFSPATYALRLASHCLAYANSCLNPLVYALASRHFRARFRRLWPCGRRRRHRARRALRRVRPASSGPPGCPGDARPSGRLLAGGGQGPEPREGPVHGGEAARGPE
In words: cAMP assay (inhibition of forskolin-induced cAMP), GALR3 septuple mutant. Format: cell-based. The conditions noted are these: Glosensor-22F cAMP HEK293 cells, agonist 10 min then forskolin 10 μM, mean ± SE, SEM. The procedure: SPX-induced or Qu-SPX-induced cyclic adenosine monophosphate (cAMP) mobilization was measured in HEK293 cells stably expressing the pGlosensor^TM-22F cAMP plasmid (Promega Corp., Madison, WI, USA). The Glosensor-22F cAMP HEK293 cells were seeded on 96-well plates at a density of 2.0 × 10^4 cells/well 24 h before transfection. A mixture including 100 ng expression plasmid and lipofectamine 2000 reagent in diluted Opti-MEM (Gibco) was incubated at room temperature for 20 min. The mixtures were added into each well according to the manufacturer's instructions (Invitrogen, CA, USA). After 48 h, Glosensor cAMP substrates were added to the transfected cells in CO2-independent media. After 2 h, the cells were incubated with a range of agonist concentrations or vehicle for 10 min and then exposed to foskolin (10 μM). Luminescence was measured for up to 30 min using a Microplate Reader (BioTek, Winooski, VT, USA).
Data analysis was performed by non-linear regression with a sigmoidal dose-response curve. The concentrations of agonists that induced half-maximal stimulation (EC50) were calculated using the GraphPad PRISM5 software (GraphPad software, Inc., San Diego, CA). All data are presented as the mean ± standard error (SE) of at least three independent experiments. […]

The target in experiment [2] is T1, GALR3 septuple. Kind of experiment: SRE-luc luciferase assay, GALR3 septuple mutant. The conditions noted are these: SRE-luc in HEK293 Gqi cells, ligand 6 h, mean ± SE, SEM. The format is cell-based. The source says: For domain swapping between GALR2 and GALR3, individual cDNA fragments of interest were amplified by polymerase chain reaction (PCR) with Pfu polymerase (ELPIS Biotech, Daejeon, Korea) and two specific primers, one corresponding to the 5' or 3' end of the GALR2 or GALR3 cDNA and the other to the region of overlap between the two receptors. The two resulting fragments, one from GALR2 and the other from GALR3, were subjected to a second round of PCR to generate the chimeric cDNAs. To construct single, double-, triple-, pentuple-, hextuple-, and septuple-mutant receptors, amino acids of GALR3 were substituted for the amino acids at the corresponding positions in GALR2 using PCR-based site-directed mutagenesis. […]
For luciferase assays, HEK293 Gqi cells were seeded on 48-well plates at a density of 2.5 × 10^4 cells/well one day before transfection. […] The luciferase activity in 50 μl cell extract was determined using a luciferase assay system according to the standard protocol for the Synergy 2 Multi-Mode Microplate Reader (BioTek, Winooski, VT, USA).
Data analysis was performed by non-linear regression with a sigmoidal dose-response curve. The concentrations of agonists that induced half-maximal stimulation (EC50) were calculated using the GraphPad PRISM5 software (GraphPad software, Inc., San Diego, CA). […]

For the compound `CSCC[C@H](NC(=O)[C@H](C)NC(=O)[C@H](CCC(N)=O)NC(=O)[C@@H]1CCCN1C(=O)[C@@H](NC(=O)[C@H](Cc1c[nH]c2ccccc12)NC(=O)[C@@H](N)CC(N)=O)[C@@H](C)O)C(=O)N[C@@H](CC(C)C)C(=O)N[C@@H](Cc1ccc(O)cc1)C(=O)N[C@@H](CC(C)C)C(=O)N[C@@H](CCCCN)C(=O)NCC(=O)N[C@@H](C)C(=O)N[C@@H](CCC(N)=O)C(N)=O` [SPX, reference compound], the EC50 worked out at 77.6 ± 38.7 nM on GALR3 septuple [1] and 4.07 ± 1.12 nM at GALR3 septuple [2].
